The test system of data set [1] is HT-29. As to the kind of experiment: Antiproliferative activity against human HT-29 cells assessed as inhibition of cell growth incubated for 72 hrs by MTS assay. The class given is functional, cell-based. To be noted: HT-29, 72 h. (Tetrazolium dyes change colour on reduction, which living cells bring about.)
The subject of data set [2] is Granta-519. The data set can be described thus: Antiproliferative activity against human Granta-519 cells assessed as inhibition of cell growth incubated for 72 hrs by MTS assay. It is filed as functional, cell-based. To be noted: Granta-519, 72 h.
In data set [3] the test system is Granta-519. As to the kind of experiment: Induction of apoptosis in human Granta-519 cells assessed as viable cells at 2000 nM incubated for 48 hrs by Annexin-V-FITC/propidium iodide staining based flow cytometry (reference value: 92.7 %). It is filed as functional. As to conditions: read-out: Activity. For orientation: Flow cytometry measures light scatter and fluorescence of single cells or particles in a stream.

Data set [4] has as its system HCT-116. As to the kind of experiment: Antiproliferative activity against human HCT-116 cells assessed as inhibition of cell growth incubated for 72 hrs by MTS assay. It is filed as functional, cell-based. To be noted: HCT-116, 72 h.
Data set [5] relates to Granta-519. As to the kind of experiment: Induction of cell cycle arrest in human Granta-519 cells assessed as accumulation of cells at G1 phase at 2000 nM incubated for 24 hrs by propidium iodide staining based flow cytometry (reference value: 45.83 %). It is filed as functional.
Data set [6] can be described thus: Tmax in BALB/c mouse at 75 mg/kg,po measured upto 24 hrs by LC-MS/MS analysis. As to conditions: in vivo. It is filed as ADME, organism-based.
Data set [7] can be described thus: Cmax in BALB/c mouse at 75 mg/kg,po measured upto 24 hrs by LC-MS/MS analysis. It is filed as ADME, organism-based. As to conditions: in vivo.
Data set [8] in a line: Half life in BALB/c mouse at 75 mg/kg,po measured upto 24 hrs by LC-MS/MS analysis. The class given is ADME, organism-based. To be noted: in vivo.
The subject of data set [9] is PC-3. The data set can be described thus: Antiproliferative activity against human PC-3 cells assessed as inhibition of cell growth incubated for 72 hrs by MTS assay. The class given is functional, cell-based. To be noted: PC-3, 72 h.
Data set [10] has as its system NCI-H446. As to the kind of experiment: Antiproliferative activity against human NCI-H446 cells assessed as inhibition of cell growth incubated for 72 hrs by MTS assay. It is filed as functional, cell-based. As to conditions: NCI-H446, 72 h.
Data set [11] concerns SUD4. As to the kind of experiment: Antiproliferative activity against human SU-DHL-4 cells assessed as inhibition of cell growth incubated for 72 hrs by MTS assay. It is filed as functional, cell-based. As to conditions: SU-DHL-4, 72 h.
Data set [12] concerns Granta-519. As to the kind of experiment: Induction of apoptosis in human Granta-519 cells assessed as late apoptotic cells at 2000 nM incubated for 48 hrs by Annexin-V-FITC/propidium iodide staining based flow cytometry (reference value: 3.07 %). The class given is functional.
For data set [13], the system named is Granta-519. The data set can be described thus: Induction of apoptosis in human Granta-519 cells assessed as early apoptotic cells at 2000 nM incubated for 48 hrs by Annexin-V-FITC/propidium iodide staining based flow cytometry (reference value: 3.75 %). It is filed as functional.
Data set [14] is described as follows: Brain to plasma ratio in ICR mouse at 50 mg/kg,po measured upto 24 hrs by LC-MS/MS analysis. The class given is ADME, organism-based.
The subject of data set [15] is DLD-1. The data set can be described thus: Antiproliferative activity against human DLD-1 cells assessed as inhibition of cell growth incubated for 72 hrs by MTS assay. The class given is functional, cell-based. To be noted: DLD-1, 72 h.
In data set [16] the test system is A2780. The data set can be described thus: Antiproliferative activity against human A2780 cells assessed as inhibition of cell growth incubated for 72 hrs by MTS assay. It is filed as functional, cell-based. To be noted: A2780, 72 h.
For data set [17], the system named is Granta-519. The data set can be described thus: Induction of apoptosis in human Granta-519 cells assessed as necrotic cells at 2000 nM incubated for 48 hrs by Annexin-V-FITC/propidium iodide staining based flow cytometry (reference value: 0.429 %). The class given is functional.
Data set [18] concerns OCI-Ly10. The data set can be described thus: Antiproliferative activity against human OCI-Ly10 cells assessed as inhibition of cell growth incubated for 72 hrs by MTS assay. It is filed as functional, cell-based. As to conditions: OCI-Ly10, 72 h.
Data set [19] has as its system CAPAN-1. The data set can be described thus: Antiproliferative activity against human CAPAN-1 cells assessed as inhibition of cell growth incubated for 72 hrs by MTS assay. The class given is functional, cell-based. As to conditions: CAPAN-1, 72 h.
For data set [20], the system named is LoVo. As to the kind of experiment: Antiproliferative activity against human LoVo cells assessed as inhibition of cell growth incubated for 72 hrs by MTS assay. The class given is functional, cell-based.
Data set [21] in a line: AUCinfinity in BALB/c mouse at 75 mg/kg,po measured upto 24 hrs by LC-MS/MS analysis. The class given is ADME, organism-based. To be noted: in vivo.
Data set [22] deals with Granta-519. The data set can be described thus: Induction of cell cycle arrest in human Granta-519 cells assessed as accumulation of cells at S phase at 2000 nM incubated for 24 hrs by propidium iodide staining based flow cytometry (reference value: 44.81 %). The class given is functional.

In general, IC50 refers to the concentration that gives 50% inhibition. Broadly, the Tmax is the time at which the peak concentration occurs. What is called Cmax is the highest concentration seen after dosing. As usually defined, the half-life is the time needed for the level to fall by half in the phase considered. The term AUC(0-inf) denotes total exposure, with the tail of the curve extrapolated. A lower AUC(0-inf) goes with less exposure.

For the compound `C[C@@H]1COCCN1c1cc(C2([S@](C)(=N)=O)CC2)nc(-c2cc[nH]c3nccc2-3)n1` [CERALASERTIB], the 50% inhibitory concentration (IC50) was found to be 2590 nM in data set [1]; 550 nM in [2]; 1120 nM in data set [4]; 11300 nM in data set [9]; 1960 nM in data set [10]; 2260 nM in data set [11]. The IC50 in [15] came out at 5280 nM; in [16], 620 nM; in data set [18], 520 nM; in [19] it was 5540 nM; in data set [20], 1140 nM. For the same compound, in data set [3], the viability at 2 µM was determined as 78%. The Activity worked out at 30.16% in [5]; 10.3% in data set [12]; 8.66% in data set [13]; 3.07% in data set [17]; 67.69% in [22]. Moreover, the Tmax in data set [6] is 0.25 h. In [7], this compound came in with a Cmax of 12000 ng/mL. In addition, the half-life in data set [8] was 1.93 h. For the same compound, the BPR in data set [14] was 6.6%. The compound further registered a total exposure AUC(0-inf) in data set [21] of 41600 ng·h/mL.
